Where two headings read alike, the source gives them in different places.
Tests used:
[1] = cited from earlier work
[2] = target: Aβ1–42 (Homo sapiens, UniProt P05067); assay: Inhibition of self-mediated Aβ1–42 aggregation (thioflavin T fluorescence); assay type: biochemical; details: Aβ1–42 40 μM, 24 h, 37 °C, read-out: Aβ1–42 Aggregation Inhibition, Self-Induced; for inhibition at 40 µM: inhibitor 40 µM
Protocol: (§1) The anti-amyloidogenic capacity of the compounds was also evaluated in vitro, in the absence and presence of Cu(II), based on the measurement of the fluorescence emission of Thioflavin T (ThT), a stain known by its Aβ fibril binding capacity. This binding interaction can be analyzed by fluorimetry, since the presence of ThT-fibrils increases the absorbance and the emission of the ThT dye, and it also induces red shifts on the absorbance (from 385 to 446 nm) and emission peaks (from 445 to 485 nm). All the measurements were performed after incubation (24 h, 37 °C) of the self-mediated and Cu^2+-induced Aβ aggregates in the presence/absence of the compounds under evaluation.
(§2) Herein, due to solubility problems of some compounds in the phosphate buffer (0.215 M, pH 8.0) of the working medium, the assays were carried out in the presence of 40 μM concentration of inhibitor and 20 μM in the case of compound 4, instead of 80 μM as previously reported. […] The activity dependence on ligand structural features may be mainly explained by the different ability for intercalation into the fibrils, as already assumed for other inhibitors. […] The data obtained for compounds 6 and 7 indicate that the presence of R1 = F, -NO2 substituents in the BIM have some small positive effect on the inhibition of Aβ aggregation.
(§3) The Aβ peptide was treated with 1,1,1,3,3,3-hexafluoropropan-2-ol (HFIP) and dissolved in a CH3CN/Na2CO3 (300 μM)/NaOH (250 μM) (48.3:48.3:4.3, v/v/v) mixture in order to have a stable stock solution, avoiding self-aggregation of Aβ1–42. Then, the prepared 500 μM solution was diluted at 40 μM in phosphate buffer (0.215 M, pH 8.0).
(§4) The solutions of the tested compounds were prepared in MeOH (1 mg/mL), being further diluted in phosphate buffer to a concentration of 480 μM. For copper-induced aggregation studies, a solution of CuCl2 240 μM was prepared from a stock standard solution (0.015 M). To perform the assays for the Aβ1–42 aggregation inhibition, a reported method, based on the fluorescence emission of thioflavin T (ThT), was followed. Aβ1–42 (40 μM) was incubated at 37 °C, for 24 h with or without Cu(II) (40 μM) in a phosphate buffer in presence or absence of the single ligand (40 μM and 20 μM for compound 4). Then, the samples were added to a 96-well plate with […] of 5 μM ThT in 50 mM glycine-NaOH (pH 8.5) buffer. Blank samples were prepared without the peptide for each concentration. The ThT fluorescence was measured at 446 nm (excitation) and 485 nm (emission). The inhibition percentage of aggregation was calculated by Equation (2), in which IFi and IF0 corresponded to the fluorescence intensities, in the presence and in the absence of the tested compound, subtracted of the fluorescence intensities due to the respective blanks.
(§5) The reported values were obtained as the mean ± SEM of duplicate of three different experiments.

[3] = target: Aβ1–42 with Cu(II) (Homo sapiens, UniProt P05067); assay: Inhibition of Cu-induced Aβ1–42 aggregation (thioflavin T fluorescence); assay type: biochemical; details: copper 40 µM, Aβ1–42 40 μM, 24 h, 37 °C; for inhibition at 40 µM: inhibitor 40 µM
Protocol: as §1, §2, §3, §4, §5

[4] = target: T1, AChE (type VI-S, from electric eel) (Electrophorus electricus, UniProt O42275); assay: AChE inhibition, adaptation of Ellman's method; assay type: biochemical; details: means of three independent experiments ± SD, read-out: TcAChE Inhibition IC50
T1 construct: purchased type VI-S
Protocol: The inhibition of AChE by the DNP-BIM hybrids herein studied was assayed by using a variation of Ellman´s test and the IC50 values obtained are included in Table 2. […]. An adaptation of the Ellman´s method, previously described, was used to measure the acetylcholinesterase inhibitory activity. The assay solution contained 374 µL of 4-(2-hydroxyethyl)-1-piperazineethanesulfonic acid (HEPES) buffer (50 mM, pH 8.0), 476 µL of 5,5’-dithiobis-(2-nitrobenzoic acid) (DTNB, 3 mM), a variable volume (10–50 µL) of the stock solution of each compound in methanol (1 mg/mL), 25 µL of AChE (type VI-S, from electric eel) stock solution, and the necessary amount of methanol to obtain 0.925 mL of sample mixture in a 1 mL cuvette. The samples were incubated for 15 min and then 75 µL of acetylthiocholine iodide (AChI) solution (16 mM) was added. The reaction was monitored for 5 min at 405 nm. Assays were run with a blank containing all the components except AChE, which was replaced by HEPES buffer. The rates of the reaction were calculated as well as the enzyme activity. A control reaction was carried out using methanol as a sample solution and it was considered as 100% activity.
The inhibition curves were obtained by plotting the percentage of enzymatic inhibition versus inhibitor concentration and a calibration curve was got from which the linear regression parameters were obtained.

[5] = Cu(II) chelation by potentiometry; assay type: physicochemical; details: for pH at which metal complexation starts, Cu(II): formation of MHL species, CL = 6.7 × 10^−4 M, 1:2 M(II)/L; for pCu (pM = −log[M]): pH 7.4, CL/CM = 10, CM = 10^−6 M; for Kd: pH 7.4, read-out: conditional dissociation constant (K´d) for the copper complex
Text: (§6) The metal chelating ability of hybrids 7 and 12, due to the BIM bidentate unity with (N,O) coordination mode, was studied by potentiometry. Figure 3A,B show a change in the deprotonation profile of the ligand titration curves due to the presence of the metal ions. In fact, the curves for the Cu(II)/L systems lie well below that of the ligand, while for the Zn(II)/L systems stay under for a > −1 (compound 7) or a > 0 (compound 12), thus supporting the formation of 1:1 and 1:2 M/L ratio complexes with the deprotonated and mono-protonated forms of the ligand and with relative metal dependent stability order (Cu > Zn). Table 1 contains the equilibrium models obtained from the fitting analysis of the potentiometric curves by program Hyperquad. In these equilibrium models, which the coordination core of the compounds integrates the bidentate (N,O) BIM moiety, MHL and MH2L2 correspond to species with the ligand containing one protonated nitrogen atom at the piperazine moiety, ML and ML2 correspond to complexes involving the completely deprotonated form of the ligand while MH-1L2 are mixed ligand-hydroxo metal complexes.
(§7) Solutions: the aqueous copper (CuCl2, 0.015 M) and zinc (ZnCl2, 0.0156 M) stock solutions for potentiometric equilibrium studies were prepared from 1000 ppm standards (Titrisol) and their metal content was evaluated by atomic absorption. The titrant solution (0.1 M KOH) was obtained from a carbonate-free commercial concentrate (Titrisol) and standardized by potentiometric titration with potassium hydrogen phthalate. The titrant solution was discarded whenever the percentage of carbonate (Gran’s method) was about 0.5% of the total amount of base.
(§8) Measurements: compounds 7 and 12 were titrated in 50% (w/w) DMSO/H2O medium, at T = 25.0 ± 0.1 °C and ionic strength (I) 0.1 M KCl, using 0.1 M KOH as titrant. Both glass and Ag/AgCl reference electrodes were previously conditioned in DMSO/H2O mixtures with increasing amounts of DMSO and the response of the glass electrode was controlled by strong acid–strong base (HCl/KOH) calibrations with the determination of the Nernst parameters by Gran’s method. […] All titrations were performed in duplicate and under the stated experimental conditions the pKw value (13.6) was determined and subsequently used in the computations. The stepwise protonation constant of the ligand, Ki = [HiL]/([Hi–1L][H]), and the overall metal–complex stability constants, βMmHhLl = [MmHhLl]/([M]^m[H]^h[L]^l), were calculated by fitting the potentiometric titration data with Hyperquad 2008 [26]. The metal hydrolysis constants were determined under the defined experimental conditions (I = 0.1 M KCl, 50% w/w DMSO/H2O, T = 25.0 ± 0.1 °C) and the following values of stability constants were included in the fitting of experimental data towards the equilibrium models related to the Cu^2+/L and Zn^2+/L systems: log βCu2H−2 = −9.99; log βZnH−2 = −14.79, log βZnH−3 = −23.48. Species distribution curves were plotted with the Hyss program.

[6] = Zn(II) chelation by potentiometry; assay type: physicochemical; details: for pH at which metal complexation starts, Zn(II): formation of MHL species, CL = 6.7 × 10^−4 M, 1:2 M(II)/L; for pZn (pM = −log[M]): pH 7.4, CL/CM = 10, CM = 10^−6 M
Text: as §6, §7, §8

[7] = global formation constant, 50% w/w DMSO/water, I = 0.1 M KCl, 25.0 °C

Chain of Aβ1–42 with Cu(II) (P05067 672-713): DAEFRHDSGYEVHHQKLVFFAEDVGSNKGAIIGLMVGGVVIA
Chain of Aβ1–42 (P05067 672-713): as above
T1 sequence (O42275 24-633): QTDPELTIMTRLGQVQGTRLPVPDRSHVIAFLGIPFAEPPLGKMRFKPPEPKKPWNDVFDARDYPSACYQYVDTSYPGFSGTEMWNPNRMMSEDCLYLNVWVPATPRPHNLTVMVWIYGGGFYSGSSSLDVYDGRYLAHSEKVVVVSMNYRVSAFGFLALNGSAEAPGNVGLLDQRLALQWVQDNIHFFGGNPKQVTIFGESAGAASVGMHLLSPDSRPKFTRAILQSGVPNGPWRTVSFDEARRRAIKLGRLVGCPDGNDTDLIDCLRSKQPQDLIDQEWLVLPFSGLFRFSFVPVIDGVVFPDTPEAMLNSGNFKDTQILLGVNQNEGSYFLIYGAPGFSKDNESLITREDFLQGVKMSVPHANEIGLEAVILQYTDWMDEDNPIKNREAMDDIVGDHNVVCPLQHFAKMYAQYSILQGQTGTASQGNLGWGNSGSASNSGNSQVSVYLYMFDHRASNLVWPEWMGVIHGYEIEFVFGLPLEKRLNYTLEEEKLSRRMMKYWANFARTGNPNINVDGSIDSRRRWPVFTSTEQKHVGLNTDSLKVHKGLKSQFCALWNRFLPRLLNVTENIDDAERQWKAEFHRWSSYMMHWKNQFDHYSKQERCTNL

## O=[N+]([O-])c1ccc(O)cc1 [4-nitrophenol]
[1]; standard group
  log K (protonation constant): 7.15

## O=C(NCC1CCCN(Cc2ccccc2)C1)c1ccc2nc(-c3ccccc3O)[nH]c2c1 (stereo not drawn) [Compound 3, N-((1-Benzylpiperidin-3-yl)methyl)-2-(2-hydroxyphenyl)-1H-benzo[d]imidazole-6-carboxamide]
[2]
  inhibition at 40 µM: 71.4%
[3]
  inhibition at 40 µM: 81.8%
[4]
  IC50: 5 ± 0.5 µM

## O=C(NCC1CCCCN1Cc1ccccc1)c1ccc2nc(-c3ccccc3O)[nH]c2c1 (stereo not drawn) [Compound 4, N-((1-Benzylpiperidin-2-yl)methyl)-2-(2-hydroxyphenyl)-1H-benzo[d]imidazole-6-carboxamide]
[2]; inhibitor 20 µM
  inhibition at 20 µM: 47.6%
[3]; inhibitor 20 µM
  inhibition at 20 µM: 55.9%
[4]
  IC50: 14 ± 1 µM

## O=C(NCC1CCN(Cc2ccccc2)CC1)c1ccc2[nH]c(-c3cc(F)ccc3O)nc2c1 [Compound 6, N-((1-Benzylpiperidin-4-yl)methyl)-2-(2-hydroxy-5-fluorophenyl)-1H-benzo[d]imidazole-5-carboxamide]
[2]
  inhibition at 40 µM: 51.2%
[3]
  inhibition at 40 µM: 61%
[4]
  IC50: 1.67 ± 0.05 µM

## O=C(NCCN1CCN(Cc2ccccc2)CC1)c1ccc2[nH]c(-c3cc([N+](=O)[O-])ccc3O)nc2c1 [Compound 7, N-(2-(4-Benzylpiperazin-1-yl)ethyl)-2-(2-hydroxy-5-nitrophenyl)-1H-benzo[d]imidazole-5-carboxamide]
[2]
  inhibition at 40 µM: 57.6%
[5]
  pH at which metal complexation starts, Cu(II): around 2
  pCu (pM = −log[M]): 10.9
  Kd: 0.08 µM
[5]; [7]
  log βCumHhLl (1–12), CuH-1L2: 7.30(9)
  log βCumHhLl (102), CuL2: 15.27(8)
  log βCumHhLl (111), CuHL: 14.23(5)
  log βCumHhLl (122), CuH2L2: 26.90(7)
[6]
  pH at which metal complexation starts, Zn(II): 3.5–4
  pZn (pM = −log[M]): 6.5
[6]; [7]
  log βZnmHhLl (101), ZnL: 4.98(8)
  log βZnmHhLl (102), ZnL2: 10.22(8)
  log βZnmHhLl (111), ZnHL: 10.40(8)
  log βZnmHhLl (122), ZnH2L2: 21.92(7)
[3]
  inhibition at 40 µM: 71.4%
[4]
  IC50: 21 ± 3 µM

## O=C(NCCN1CCN(Cc2ccccc2)CC1)c1ccc2[nH]c(-c3cc(F)ccc3O)nc2c1 [Compound 8, N-(2-(4-Benzylpiperazin-1-yl)ethyl)-2-(2-hydroxy-5-fluorophenyl)-1H-benzo[d]imidazole-5-carboxamide]
[2]
  inhibition at 40 µM: 50.6%
[3]
  inhibition at 40 µM: 55.2%
[4]
  IC50: 4.3 ± 0.3 µM

## O=C(NCCN1CCN(Cc2ccccc2[N+](=O)[O-])CC1)c1ccc2nc(-c3ccccc3O)[nH]c2c1 [Compound 11, 2-(2-Hydroxyphenyl)-N-(2-(4-(2-nitrobenzyl)piperazin-1-yl)ethyl)-1H-benzo[d]imidazole-6-carboxamide]
[2]
  inhibition at 40 µM: 22.7%
[3]
  inhibition at 40 µM: 43.5%
[4]
  IC50: 20 ± 1 µM

## O=C(NCCN1CCN(Cc2ccccn2)CC1)c1ccc2nc(-c3ccccc3O)[nH]c2c1 [Compound 12, 2-(2-Hydroxyphenyl)-N-(2-(4-(pyridin-2-ylmethyl)piperazin-1-yl)ethyl)-1H-benzo[d]imidazole-6-carboxamide]
[2]
  inhibition at 40 µM: 30.1%
[5]
  pH at which metal complexation starts, Cu(II): around 2
  pCu (pM = −log[M]): 10.4
  Kd: 0.000365 µM
[5]; [7]
  log βCumHhLl (1–12), CuH-1L2: 7.88(7)
  log βCumHhLl (101), CuL: 11.18(5)
  log βCumHhLl (102), CuL2: 17.14(7)
  log βCumHhLl (111), CuHL: 16.26(3)
[6]
  pH at which metal complexation starts, Zn(II): 3.5–4
  pZn (pM = −log[M]): 6.3
[6]; [7]
  log βZnmHhLl (1–12), ZnH-1L2: 2.07(7)
  log βZnmHhLl (101), ZnL: 6.26(5)
  log βZnmHhLl (102), ZnL2: 10.54(5)
  log βZnmHhLl (111), ZnHL: 12.58(4)
[3]
  inhibition at 40 µM: 44.4%
[4]
  IC50: > 100 µM

## c1c[nH]cn1 [imidazole]
[1]; standard group
  log K (protonation constant): 6.95

## Oc1ccccc1 [phenol]
[1]; standard group
  log K (protonation constant): 9.98

## c1ccncc1 [pyridine]
[1]; in water
  log K (protonation constant): 5.24

From article PMC7070709, “Design, Synthesis, and In Vitro Evaluation of Hydroxybenzimidazole-Donepezil Analogues as Multitarget-Directed Ligands for the Treatment of Alzheimer’s Disease” (Molecules, 2020)
